In ChEMBL document CHEMBL1151140, “Enantiomeric Relationships and Anthelmintic Activity of Dysinin Derivatives from Dysidea Marine Sponges” (J Nat Prod, 1990) one finds Activity data, which are given here for four compounds.

Assay [1] relates to Nippostrongylus brasiliensis. Kind of assay: Anthelmintic activity against Nippostrongylus brasiliensis at 50 ug/ml. Format: functional, organism-based.
The next assay has as its system Nippostrongylus. Put plainly: Anthelmintic activity against Nippostrongylus dubias at 1000 ppm. Format: functional, organism-based.
Assay [2] can be described thus: Anthelmintic activity against Hypselodoris nana at 1000 ppm. Format: functional.

The source made the active and inactive calls. The rule behind the calls is not given here.

Regarding `CC1=C[C@H]2Cc3occc3C(C)(C)[C@@H]2CC1`, in assay [1], the result was Active. Besides, the outcome (in the assay with Nippostrongylus; in assay [2]) was inactive.
Take `CO[C@]12C[C@@H]3C=C(CSC(C)=O)CC[C@H]3C(C)(C)C1=CC(=O)O2`: the result in assay [1] was inactive.
On to `CC1(C)c2ccoc2C[C@@H]2C=C(CSSCC3=C[C@H]4Cc5occc5C(C)(C)[C@@H]4CC3)CC[C@H]21`, for which the result in assay [1] was Active.
As to `CC(=O)SCC1=C[C@H]2Cc3occc3C(C)(C)[C@@H]2CC1`, the result in assay [1] was Active.
